The subject of this test is THP1 cells. The test can be described thus: Relative mRNA expression of pro- and anti-inflammatory genes by Real-Time PCR in LPS-activated THP1 cells. Format: cell-based, human. The conditions noted are these: 10 μM, normalized to GAPDH, FIG. 1. How it is done:
THP-1, a human monocytic cell line derived from an acute monocytic leukemia patient, were cultured and maintained at 37° C. and 5% CO2 in RPMI with 10% FBS, 1% glutamine and 1% penicillin/streptomycin. THP1 cells (1.5×10^6) were serum starved for 6 h and then classically activated with LPS (1 ng/ml, L2880; Sigma-Aldrich), and exposed or not to GPBAR1 agonists previously tested in transactivation assay.
Furthermore, selected compounds exert in vitro activity on GPBAR1-target genes reducing the production of pro-inflammatory cytokines (IL-6, TNF-α, IL-1β, […]) in THP1 monocytic/macrophage cells primed with LPS and co-incubated with or without the selected compounds at 10 μM (FIG. 1).
Values are normalized relative to GAPDH mRNA and are expressed as mean±SEM (n=3); #p<0.05.
Colon samples were immediately frozen in liquid nitrogen and stored at −80° C. until used, mechanically homogenated with the aid of a pestle, and the obtained materials re-suspended in 1 ml of Trizol (Thermo Scientific™). THP1 cells were spin-dried at 1300 rpm and then the pellets were re-suspended in 1 ml of Trizol (Thermo Scientific™). The RNA was extracted according to the manufacturer's protocol. After purification from genomic DNA by DNase-I treatment (Thermo Scientific™), 1 μg of RNA from each sample was reverse-transcribed using random hexamer primers with Superscript-II (Thermo Scientific™) in a 20 μL reaction volume; 10 ng cDNA were amplified in a 20 μL solution containing 200 nM of each primer and 10 μL of SYBR Select Master Mix (Thermo Scientific™). All reactions were performed in triplicate, and the thermal cycling conditions were as follows: 3 min at 95° C., followed by 40 cycles of 95° C. for 15 s, 56° C. for 20 s and 72° C. for 30 s, using a Step One Plus machine (Applied Biosystem). The relative mRNA expression was calculated accordingly to the 2^(−ΔCt) method comparing the expression of different genes to that of GAPDH housekeeping. Primers were designed using the software PRIMER3 (http://frodo.wi.mit.edu/primer3/) using published data obtained from the NCBI database. The primer used for murine samples were conducted as follows (forward and reverse): Gapdh (for […] (SEQ ID: 1); rev […] (SEQ ID: 2)), Tnf-α (for […] (SEQ ID: 3); rev […] (SEQ ID: 4)), Il-6 (for […] (SEQ ID: 5); rev […] (SEQ ID: 6)), Il-1β (for […] (SEQ ID: 7); rev […] (SEQ ID: 8)), Il-10 (for […] (SEQ ID: 9); rev […] (SEQ ID: 10)), Gpbar1 (for […] (SEQ ID: 11); rev […] (SEQ ID: 12)). […]
In general terms: Quantitative PCR measures a nucleic acid by following its amplification.

For the compound `CC[C@]1(O)C[C@H]2[C@@H]3CC[C@H]([C@H](C)CC#N)[C@@]3(C)CC[C@@H]2[C@@]2(C)CC[C@@H](O)C[C@@H]12` [PBT110B, 3α,6α-dihydroxy-6β-ethyl-24-nor-5β-cholan-23-nitrile], the “IL1-β production (relative mRNA expression)” value is recorded as “significantly reduced”, the “IL-6 production (relative mRNA expression)” value was “significantly reduced”, the “TNF-α production (relative mRNA expression)” value was “significantly reduced” and the “expression of anti-inflammatory gene IL-10” value is reported as “increased”.

For the origin of these results see US20230066156A1, “6-SUBSTITUTED, 22-CYANO HYODEOXYCHOLANIC ANALOGUES AND USES THEREOF” (PRECISION BIO-THERAPEUTICS S.R.L., priority 2019, published 2023).
